Patent US11529397B2, “Method of treating mucopolysaccharidosis type IVA” (Saint Louis University, priority 2018, dated 2022)

Tests used:
splenocytes [1] = assay: Secreted cytokine profile of splenocytes, retest in MKC mice (Example 7); format: cell-based, mouse; details: for IL-5 secretion, ERT treated vs PBS controls, p or significance / IL-13 secretion, ERT treated vs PBS controls, p or significance / profile of secreted cytokines, ERT treated vs PBS treated mice: MKC mice; for levels of IL-4 secretion among the stimuli / levels of IL-5 secretion among the stimuli: MKC mice treated by ERT; for profile of secreted cytokines, ERT treated vs PBS treated mice: 16 i.v. infusions
Experimental: The predicted peptides from Example 1 were reevaluated in MKC mice to reaffirm the selection of peptides 4, 8, and 10. […] A control group received PBS. […] The suspension was centrifuged at 1,000 rpm during 10 minutes. […] The specificity of cellular response against the peptides or the complete enzyme in the in vitro stimulation was determined by splenocyte proliferation or cytokine secretion in ERT treated mice or PBS injected control mice.
(§1) Cytokines were determined in the cell culture supernatants. […] Cells were centrifuged at 1,000 rpm during 10 min. Secreted cytokines (IL-4, IL-5, IL-13, and IFN-γ) in the collected supernatants were detected by a bead immunoassay kit which allow the measurement of multiple proteins simultaneously (LUMINEX xMAP Technology, using a Millipore Milliplex™ kit) according to manufacturer's instructions (FIG. 5).

splenocytes [2] = assay: Splenocytes proliferation in Morquio A mouse models and WT mice treated by ERT (Example 9); format: cell-based
Experimental: (§2) Morquio A mouse models: a). […] 14(22): p. 3321-35).c). Missense mutation mice (Galnstm (C76S) SLU C2) (Tomatsu et al. (2007) Mol Genet Metab., 91(3): p. 251-8), and wild-type C57BL6 mice were treated by ERT. […] A control group received PBS.
(§3) The suspension was centrifuged at 1,000 rpm during 10 minutes.
Thymidine incorporation was measured by β-Scintillation counter (Trilux Microbeta Counter) Mirano-Bascos, et al. (2010) J Virol. 84(7): p. 3303-11).

MKC mice [3] = assay: Oral tolerance protocol followed by ERT, overall outcome; format: in vivo, mouse; details: oral administration prior to ERT
Description: (§4) Control groups (7 and 8) received PBS alone.

MKC mice [4] = assay: Oral tolerance induction: GALNS specific IgG plasma levels by ELISA (Example 19); format: in vivo, mouse
Experimental: as §4
An indirect ELISA technique was used to detect plasma IgG and IgE antibodies against GALNS in treated and untreated mice. […] The plates were blocked with 3% Casein in PBS for 1 h at room temperature in a wet chamber. After two washes, first with TTBS (10 mMTris, 150 mM NaCl, 0.05% Tween20, pH 7.5), and then with TBS (10 mM Tris, 150 mM NaCl, 0.05%, pH 7.5), […] of mice plasma samples diluted 1:500, for IgE and 1:1,000 for IgG, in TTBS were added to the plate and incubated 2 h at 37° C. in a wet chamber. Four washes with TTBS were performed. 100 μl of anti-mouse IgE-HRP (Thermo Scientific) 1:1,000 in TTBS or IgG-Peroxidase (Sigma) 1:5,000 dilution in TTBS were applied. After three washes with TTBS, followed by one wash with TBS, the experiment was developed with the substrate TMB (3,3′,5,5′Tetramethylbenzidine). The enzymatic reaction was stopped with IN HCl solution and the absorbance was measured at 450 nm in a Multiskan® EL800 (Bio-Tek Instruments). Plasma concentrations of IgG antibodies anti-GALNS were derived by extrapolation of the absorbance values from a calibration curve using a mAb anti-GALNS.

MKC mice [5] = assay: Oral tolerance induction: secreted cytokines after GALNS in vitro stimulation (Examples 15-18); format: in vivo, mouse; details: for IFN-γ secretion after oral treatment: oral 50, 100 or 500 μg, GALNS in vitro stimulation
Description: as §4
Secreted cytokines (IL-4, IL-5, IL-10, IL-13 and IFN-γ) in the collected supernatants were detected by a bead immunoassay kit which allow the measurement of multiple proteins simultaneously (LUMINEX xMAP Technology, using a Millipore Milliplex™) kit according manufacturer's instructions (FIG. 6).

splenocytes [6] = assay: Secreted cytokines of splenocytes in Morquio A mouse models and WT mice treated by ERT (Examples 10-13); format: cell-based; details: for IL-4 secretion / IL-5 secretion / IL-13 secretion: MTol mice
Experimental: as §2, §3
as §1, with “1000” for “1,000”, “instructions.” for “instructions (FIG. 5).”

splenocytes [7] = assay: Screening of peptides by splenocytes proliferation, retest in MKC mice (Examples 5-6); format: cell-based, mouse; details: MKC mice, 16, 22 and 24 infusions; with higher number of infusions
Experimental: of body weight through the tail vein. A control group received PBS. […] The suspension was centrifuged at 1,000 rpm during 10 minutes. […] The specificity of cellular response against the peptides or the complete enzyme in the in vitro stimulation was determined by splenocyte proliferation or cytokine secretion in ERT treated mice or PBS injected control mice. […] 3H-Thymidine incorporation was measured by β-Scintillation counter (Trilux Microbeta Counter). Proliferation data are expressed as counts per minute (cpm) values (FIG. 5). (Mirano-Bascos et al. (2010) J Virol. 84(7): p. 3303-11).

splenocytes [8] = assay: Splenocyte proliferation after in vitro stimulation with peptides or GALNS (Examples 2, 4); format: cell-based, mouse; details: for proliferation of splenocytes relative to age of the animal and length of treatment: MKC mice, weeks of infusion
Experimental: Mice (MKC) genetically engineered not to express GALNS were used in these examples. […] 200 μl of the emulsion were administered as a subcutaneous injection. […] Control mice (n=2) were immunized with PBS emulsified in CFA and IFA respectively (Chung et al. (2005) J. Leukoc Biol. 77(6):906-13)). […] A control group (n=5) received PBS (Tomatsu et al. (2008) Hum Mol Genet. 15; 17(6):815-24). […]
Ten days after the last immunization or the last infusion, the mice were euthanized and the spleen was aseptically removed. […] The suspension was centrifuged at 1000 rpm […]. The red blood cells were lysed using a hypotonic lysis buffer (Sigma® R7757). […] Cells were pulsed with 1 JpCi of [3H]thymidine for the last 18 h of incubation. [3H]thymidine incorporation was measured by […] (Trilux Microbeta Counter). The Stimulation Index (SI) was calculated as the mean value of the three wells for each condition divided by the mean value of the unstimulated cells (Mirano-Bascos (2010) J Virol. 84(7):3303-11).

[9] = oral 50 μg, one week after the last infusion

QQHQEALVPAQPQLNVTNWA (listed as Homo sapiens) [Peptide I10]
IL-5 secretion, ERT treated vs PBS controls, p or significance (splenocytes [1]): 0.0094 | IL-13 secretion, ERT treated vs PBS controls, p or significance (splenocytes [1]): 0.0002 | levels of IL-4 secretion among the stimuli (splenocytes [1]): Higher levels | levels of IL-5 secretion among the stimuli (splenocytes [1]): Higher levels | profile of secreted cytokines, ERT treated vs PBS treated mice (splenocytes [1]): statistically significant difference | splenocytes proliferation, ERT treated vs PBS controls (splenocytes [2]; C2 mice): statistically significant difference | splenocytes proliferation, ERT treated vs PBS controls (splenocytes [2]; MKC mice): statistically significant | splenocytes proliferation, ERT treated vs PBS controls (splenocytes [2]; WT mice): statistically significant difference | inducing oral tolerance to GALNS (MKC mice [3]): effective | reduction in GALNS specific IgG plasma levels vs non-tolerized mice, p or words (MKC mice [4]; [9]): 0.0086 | reduction in GALNS specific IgG plasma levels vs non-tolerized mice, p or words (MKC mice [4]; oral 100 μg): same levels or in some cases higher levels | reduction in GALNS specific IgG plasma levels vs non-tolerized mice, p or words (MKC mice [4]; oral 500 μg): same levels or in some cases higher levels | IFN-γ secretion after oral treatment (MKC mice [5]): down-regulated | IFN-γ secretion, MKC vs MTol mice treated by ERT, p or significance (splenocytes [6]): 0.044 | IL-4 secretion (splenocytes [6]): did not present secretion of IL-4 | IL-5 secretion (splenocytes [6]): did not present secretion of IL-5 | IL-13 secretion (splenocytes [6]): did not show any secretion of IL-13 | specific cellular response after splenocytes in vitro stimulation (splenocytes [6]; mice treated by ERT, compared with GALNS stimulation): very similar to the one observed by in vitro stimulation with GALNS | relationship between number of weekly i.v. infusions and cpm values of splenocytes proliferation (splenocytes [7]): lower levels of proliferation | proliferation of splenocytes relative to age of the animal and length of treatment (splenocytes [8]): highest response at 16 weeks | splenocyte proliferation response (splenocytes [8]; splenocytes of MKC mice treated by ERT with GALNS, in vitro peptide stimulation): strong response

B1: N-acetylgalactosamine-6-sulfatase (protein, listed as Homo sapiens)
chain: APQPPNILLLLMDDMGWGDLGVYGEPSRETPNLDRMAAEGLLFPNFYSANPLCSPSRAALLTGRLPIRNGFYTTNAHARNAYTPQEIVGGIPDSEQLLPELLKKAGYVSKIVGKWHLGHRPQFHPLKHGFDEWFGSPNCHFGPYDNKARPNIPVYRDWEMVGRYYEEFPINLKTGEANLTQIYLQEALDFIKRQARHHPFFLYWAVDATHAPVYASKPFLGTSQRGRYGDAVREIDDSIGKILELLQDLHVADNTFVFFTSDNGAALISAPEQGGSNGPFLCGKQTTFEGGMREPALAWWPGHVTAGQVSHQLGSIMDLFTTSLALAGLTPPSDRAIDGLNLLPTLLQGRLMDRPIFYYRGDTLMAATLGQHKAHFWTWTNSWENFRQGIDFCPGQNVSGVTTHNLEDHTKLPLIFHLGRDPGERFPLSFASAEYQEALSRITSVVQQHQEALVPAQPQLNVCNWAVMNWAPPGCEKLGKCLTPPESIPKKCLWSH
notes: recombinant human GALNS produced in CHO cells, used for ERT and oral tolerance
IL-5 secretion, ERT treated vs PBS controls, p or significance (splenocytes [1]): 0.0029 | IL-13 secretion, ERT treated vs PBS controls, p or significance (splenocytes [1]): 0.0152 | levels of IL-4 secretion among the stimuli (splenocytes [1]): Higher levels | levels of IL-5 secretion among the stimuli (splenocytes [1]): Higher levels | profile of secreted cytokines, ERT treated vs PBS treated mice (splenocytes [1]): statistically significant difference | splenocytes proliferation, ERT treated vs PBS controls (splenocytes [2]; C2 mice): statistically significant difference | splenocytes proliferation, ERT treated vs PBS controls (splenocytes [2]; MKC mice): statistically significant | splenocytes proliferation, ERT treated vs PBS controls (splenocytes [2]; WT mice): statistically significant difference | inducing oral tolerance to GALNS (MKC mice [3]): effective | reduction in GALNS specific IgG plasma levels vs non-tolerized mice, p or words (MKC mice [4]; [9]): same levels or in some cases higher levels | reduction in GALNS specific IgG plasma levels vs non-tolerized mice, p or words (MKC mice [4]; oral 100 μg): 0.033 | IL-10 secretion after oral treatment (MKC mice [5]; mice treated orally): down-regulation of IL-10 | IFN-γ secretion after oral treatment (MKC mice [5]): did not show any modulation | IFN-γ secretion, MKC vs MTol mice treated by ERT, p or significance (splenocytes [6]): not statistically significant | IL-4 secretion (splenocytes [6]): did not present secretion of IL-4 | IL-5 secretion (splenocytes [6]): did not present secretion of IL-5 | IL-13 secretion (splenocytes [6]): did not show any secretion of IL-13 | relationship between number of weekly i.v. infusions and cpm values of splenocytes proliferation (splenocytes [7]): lower levels of proliferation | proliferation of splenocytes relative to age of the animal and length of treatment (splenocytes [8]): highest response at 16 weeks
